Source: US8940343B2, “Personal care composition” (Conopco Inc., priority 2010, dated 2015)

Experiments:
[1] = HPTLC photostability of Parsol 1789 spotted with potential quencher molecules (methanol stock solutions), UVR exposure, densitometry; type: physicochemical; settings: Parsol 1789 remaining on HPTLC plate after UVR 5.5 mW/cm^2 for 120 minutes; ratios by weight
Procedure: The method was based on spotting the HPTLC plates (in duplicate) with the sunscreen molecules of interest along with potential quencher molecules or formulations. The plate is then exposed to UVR (intensity 5.5 mW/cm^2) for 120 minutes. Following this the chromatographic separation was carried out using appropriate solvent system. Densitometry analysis is done to determine the amount of sunscreen degraded.
Stock solutions were prepared in methanol following the ratios as mentioned in the following table. 14 μL of stock solutions were loaded (3 mm width; 16 mm separation) on a 10×10 cm F254 HPTLC plate, using CAMAG LINOMAT 5 applicator equipped with a 100 μL micro-syringe (Hamilton, Switzerland). Ascending chromatography was performed at a distance of 85 mm in a TLC chamber using n-hexane-ethyl acetate 9:1 (v/v) as the mobile phase (˜10 mL). The plates were dried at room temperature and subjected to ultraviolet absorption densitometry scan. The concentration dependent fluorescent bands due to presence of sunscreens were detected with a linear scan at 310 or 357 nm, using Camag TLC Scanner 3, in the presence of deuterium source. […] 4-t-buty-4′-methoxdibenzoylmethane concentrations present on each lane were determined from densitogram peak areas; prior and after the sun exposure using Win CATS Planar chromatography manager software.

[2] = known phenolic antioxidants compared with theaflavin

SMILES | Mean Percent stability [1] [%] | stabilizing property for sunscreens [2]
COc1ccc(C(=O)CC(=O)c2ccc(C(C)(C)C)cc2)cc1 [Example 1a, 4-t-butyl-4′-methoxydibenzoylmethane] | 61.9 | –
COC(=O)c1cc(O)c(O)c(O)c1 [methyl gallate] | – | did not provide the stabilizing property
